Test results taken from patent US4703061A, “Gamma-aminobutyric acid derivatives, process for production thereof, and use thereof as medicaments” (priority 1984, dated 1987).
Structures can show the parent of a compound that is named as a salt.

Columns and labels:
[1] = test system: motor activity induced by atropine; assay: Antagonistic effect against atropine (automex method); format: in vivo, ddY-strain male mice
Protocol: (§1) In Tests 1 to 4 given below, ddY-strain male mice (body weight 20-25 g) were used, and the experiments were carried out in a semi-soundproof, constant-temperature room kept at a temperature of 23±1° C. and a humidity of 55±2%. The mice were allowed to take feed and water freely.
Test 4: Antagonistic effect against atropine (automex method)
Each of the test compounds was intraperitoneally administered to mice divided into 6-membered groups, and immediately then, atropine was subcutaneously injected into the mice in a dose of 30 mg/kg. The effect of each test compound on the enhancement of motor activity induced by atropine was examined in accordance with the automex method.

[2] = background statement; cited from earlier work
[3] = background statement; cited from earlier work; remark: listed apart in the source
[4] = test system: motor activity enhanced by methamphetamine; assay: Antagonistic effect against methamphetamine (automex method); format: in vivo, ddY-strain male mice; conditions: for Motor activity (total number of counts): 500 mg/kg i.p. + methamphetamine 3 mg/kg s.c.
Protocol: as §1
Test 2: Antagonistic effect against methamphetamine (automex method)
Mice were used in 5-membered groups. Each of the test compounds was intraperitoneally administered to the mice in a predetermined dose, and immediately then, the mice were subcutaneously injected with methamphetamine in a dose of 3 mg/kg. The action of the test compounds on motor activity enhanced by methamphetamine was examined in accordance with the automex method given above.

[5] = test system: cycloheximide-induced amnesia model; assay: Effects on CXM-induced amnesia (step-down retention test); format: in vivo, ddY-strain male mice; conditions: for Escape learning latency (mean ± S.E.) / Step-down latency (mean ± S.E.): retention test 24 hours
Protocol: The test animals used were ddY-strain male mice (body weight 30-35 g). The experiment was carried out indoors at about 20° C., and the mice were allowed to take feed and water freely. 2. Effects on memorized behaviors
A device comprised of a floor grid surrounded on four sides by acrylic glass walls each having a lateral dimension of 21 cm and a wooden platform, 4×4×4 cm in size, fixed centrally to the floor grid was placed in a wooden semi-soundproof box having a size of 21×21×40 cm with a 15W electric bulb suspended from its ceiling.
The floor grid consisted of stainless steel rods, 3 mm in diameter, arranged at intervals of 8 mm. An intermittent electric shock (1 Hz, 0.5 sec., 60 V DC) was applied to the grid by an electric impulse apparatus and an isolator.
A mouse was placed in a predetermined direction on the platform. Immediately after the mouse stepped down onto the floor grid (when the mouse's four limbs left the platform), an electric shock was applied to the floor grid, and the intermittent application of the electric shock was continued until the mouse climbed up the platform to escape from the electric shock. The time which elapsed until the mouse stepped down from the platform (SDL, step down latency) and the time which elapsed until the mouse escaped to the platform from the electric shock (ELL, escape learning latency) were measured.
By the same procedure as in the training test, a mouse was placed on the platform, and its step down latency (SDL) was measured. The cut-off time was 300 seconds.
After the mouse stepped down, or the cut-off time elapsed, the mouse was placed on the floor grid at a corner of the device with its head directed in a direction opposite to the platform. An electric shock was applied to the mouse and its escape learning latency (ELL) was measured.
Mice divided into groups each consisting of not less than 20 mice were subjected to the training test, and immediately then subcutaneously injected with CXM (150 mg/kg). Twenty-four hours later, the mice was subjected to the retention test.
Immediately after administration of CXM or application of ECS, a 0.9% normal saline solution of each of the test compounds was intraperitoneally administered to the mice. Separately, a 5% gum arabic solution of CXM was administered to the mice in a control group.

[6] = test system: sleeping induced by pentobarbital; assay: Effect of prolonging the time of sleeping induced by pentobarbital; format: in vivo, ddY-strain male mice; conditions: pentobarbital sodium 50 mg/kg s.c.
Protocol: as §1
Test 3: Effect of prolonging the time of sleeping induced by pentobarbital
The effects of the test compounds on sleeping induced by pentobarbital were examined. The disappearance of righting reflex for 5 seconds or more was used as an index of sleeping. Mice were divided into 10-membered groups. Each of the test compounds was intraperitoneally administered to the mice in the doses indicated. Immediately then, pentobarbital sodium salt was subcutaneously injected into the mice in a dose of 50 mg/kg, and the sleeping time was compared with that of a group to which pentobarbital alone was injected (control).

[7] = 500 mg/kg i.p., CXM 150 mg/kg s.c.
[8] = 1000 mg/kg i.p., CXM 150 mg/kg s.c.

Which “Motor activity (total number of counts)” value ([1]; atropine alone, 30 mg/kg, 5 minutes) does the source give for `CN1[C@@H]2CC[C@H]1C[C@@H](OC(=O)C(CO)c1ccccc1)C2` (stereo partly drawn) [Atropine, atropine] here?
The value was 59 counts.

And the “Motor activity (total number of counts)” value ([1]; atropine alone, 30 mg/kg, 10 minutes)?
The value was 233 counts.

What about the “Motor activity (total number of counts)” value ([1]; atropine alone, 30 mg/kg, 15 minutes) of the same compound?
The value was 425 counts.

And the “Motor activity (total number of counts)” value ([1]; atropine alone, 30 mg/kg, 20 minutes)?
The value was 620 counts.

What about the “Motor activity (total number of counts)” value ([1]; atropine alone, 30 mg/kg, 25 minutes) of the same compound?
Its value is 806 counts.

And the “Motor activity (total number of counts)” value ([1]; atropine alone, 30 mg/kg, 30 minutes)?
The value was 964 counts.

What does the source list for `NCCCC(=O)O` [gamma-aminobutyric acid]?
excretion into urine [2]: easily excreted into urine; transmigration through the blood brain barrier [3]: hardly transmigrates through the blood brain barrier

For `CC(C)(CO)C(O)C(=O)NCCCC(=O)O` (stereo not drawn) [Ca salt of hopantenic acid, Calcium 4(2,4-dihydroxy3,3-dimethyl-butylamide)butyrate, reference compound], which “Motor activity (total number of counts)” value ([4]; 5 minutes) is on record?
Its value is 26 counts.

And the “Motor activity (total number of counts)” value ([4]; 10 minutes)?
Its value is 55 counts.

What about the “Motor activity (total number of counts)” value ([4]; 15 minutes) of the same compound?
Its value is 94 counts.

And the “Motor activity (total number of counts)” value ([4]; 20 minutes)?
Its value is 144 counts.

What about the “Motor activity (total number of counts)” value ([4]; 25 minutes) of the same compound?
Its value is 273 counts.

What about the “Motor activity (total number of counts)” value ([4]; 30 minutes) of the same compound?
The value was 408 counts.

What about the “antagonistic effect against the increase of motor activity induced by methamphetamine” value ([4]; 500 mg/kg, result in words) of the same compound?
Its value is “scarcely observed”.

And the “Escape learning latency (mean ± S.E.)” value [5, 7]?
The value was 10.3 ± 0.7 s.

And the “Step-down latency (mean ± S.E.)” value [5, 7]?
Its value is 122.3 ± 13.0 s.

What about the “Escape learning latency (mean ± S.E.)” value [5, 8] of the same compound?
The value was 8.2 ± 1.0 s.

What about the “Step-down latency (mean ± S.E.)” value [5, 8] of the same compound?
Its value is 187.7 ± 19.7 s.

And the “Escape learning latency (mean ± S.E.)” value ([5]; 1000 mg/kg i.p., without CXM)?
The value was 5.6 ± 0.8 s.

What about the “Step-down latency (mean ± S.E.)” value ([5]; 1000 mg/kg i.p., without CXM) of the same compound?
Its value is 275.9 ± 9.7 s.

What about the memory activating action ([5]; without CXM, vs control group, result in words) of the same compound?
Its memory activating action is “did not show memory activating action”.

And the “Motor activity (total number of counts)” value ([1]; 600 mg/kg i.p. + atropine 30 mg/kg s.c., 5 minutes)?
The value was 16 counts.

And the “Motor activity (total number of counts)” value ([1]; 600 mg/kg i.p. + atropine 30 mg/kg s.c., 10 minutes)?
The value was 16 counts.

What about the “Motor activity (total number of counts)” value ([1]; 600 mg/kg i.p. + atropine 30 mg/kg s.c., 15 minutes) of the same compound?
The value was 29 counts.

What about the “Motor activity (total number of counts)” value ([1]; 600 mg/kg i.p. + atropine 30 mg/kg s.c., 20 minutes) of the same compound?
The value was 56 counts.

And the “Motor activity (total number of counts)” value ([1]; 600 mg/kg i.p. + atropine 30 mg/kg s.c., 25 minutes)?
The value was 88 counts.

What about the “Motor activity (total number of counts)” value ([1]; 600 mg/kg i.p. + atropine 30 mg/kg s.c., 30 minutes) of the same compound?
Its value is 151 counts.

And the Sleeping time ([6]; 1000 mg/kg i.p.)?
Its Sleeping time is 57.0 ± 6.7 min.

And the Sleeping time ([6]; 2000 mg/kg i.p.)?
Its Sleeping time is 67.0 ± 5.9 min.
